Data published in patent US10112929B2, “Lactams as inhibitors of rock” (BRISTOL-MYERS SQUIBB COMPANY, priority 2015, dated 2018).
Where a name gives a salt, the structure may show the parent alone.

molecular target: ROCK2 (Homo sapiens (Human), UniProt O75116); assay: biochemical
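Note: rho kinase enzyme reaction halted with EDTA, phospho- and non-phospho peptide separated for read-out, kinase activity inhibition derived across a dose-response series, DMSO under 2%.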

ROCK2, sequence (O75116 whole entry, species assumed): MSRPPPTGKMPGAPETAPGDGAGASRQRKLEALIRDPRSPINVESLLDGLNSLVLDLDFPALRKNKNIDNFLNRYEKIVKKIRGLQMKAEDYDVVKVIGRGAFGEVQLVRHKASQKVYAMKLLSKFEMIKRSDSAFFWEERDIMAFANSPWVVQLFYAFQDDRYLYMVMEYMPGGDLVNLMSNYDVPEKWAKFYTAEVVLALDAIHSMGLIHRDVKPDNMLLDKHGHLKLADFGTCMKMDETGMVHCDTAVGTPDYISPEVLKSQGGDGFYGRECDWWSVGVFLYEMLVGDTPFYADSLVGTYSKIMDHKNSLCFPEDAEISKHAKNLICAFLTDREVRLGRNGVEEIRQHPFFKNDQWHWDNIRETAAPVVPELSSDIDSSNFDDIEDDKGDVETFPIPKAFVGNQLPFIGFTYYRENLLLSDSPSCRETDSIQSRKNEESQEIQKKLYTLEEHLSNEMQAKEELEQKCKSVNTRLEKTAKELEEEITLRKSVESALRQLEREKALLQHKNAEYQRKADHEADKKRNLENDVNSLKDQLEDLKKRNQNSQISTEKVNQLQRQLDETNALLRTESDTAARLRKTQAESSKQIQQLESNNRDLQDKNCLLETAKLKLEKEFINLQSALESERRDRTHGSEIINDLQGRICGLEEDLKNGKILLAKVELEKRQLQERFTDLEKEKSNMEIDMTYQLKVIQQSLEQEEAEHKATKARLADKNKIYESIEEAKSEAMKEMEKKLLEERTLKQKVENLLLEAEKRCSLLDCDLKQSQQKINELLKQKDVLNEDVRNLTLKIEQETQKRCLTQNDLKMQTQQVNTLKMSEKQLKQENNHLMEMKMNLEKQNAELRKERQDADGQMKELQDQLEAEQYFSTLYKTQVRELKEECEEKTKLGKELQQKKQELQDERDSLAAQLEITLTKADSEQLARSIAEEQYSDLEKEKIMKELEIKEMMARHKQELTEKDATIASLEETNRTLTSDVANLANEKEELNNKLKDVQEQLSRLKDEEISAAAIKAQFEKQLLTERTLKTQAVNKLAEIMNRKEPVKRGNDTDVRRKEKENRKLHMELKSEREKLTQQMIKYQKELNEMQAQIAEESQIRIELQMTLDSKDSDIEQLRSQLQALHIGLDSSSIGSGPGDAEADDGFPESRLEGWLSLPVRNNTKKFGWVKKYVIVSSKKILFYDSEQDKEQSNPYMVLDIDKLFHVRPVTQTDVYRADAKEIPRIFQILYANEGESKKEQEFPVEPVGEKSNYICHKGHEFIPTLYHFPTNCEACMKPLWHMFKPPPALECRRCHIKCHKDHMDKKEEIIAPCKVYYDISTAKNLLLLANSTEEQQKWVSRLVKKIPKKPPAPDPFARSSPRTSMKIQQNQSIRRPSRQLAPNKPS

Structure (SMILES) | IC50
COc1cc(F)cc(NC2CCN(c3ccc(-c4cn[nH]c4)cc3Cl)C2=O)c1 (single isomer, unassigned) [Example 168, 1-(2-chloro-4-(1H-pyrazol-4-yl)phenyl)-3 ((3-fluoro-5-methoxyphenyl)amino) pyrrolidin-2-one] | 0.1 to 2.2 µM
COc1nc(N2CCC(N3CCC(F)CC3)C2=O)ccc1-c1cn[nH]c1 (racemic) [Example 296, 3-(4-fluoropiperidin-1-yl)-1-(6-methoxy-5-(1H-pyrazol-4-yl)pyridin-2-yl)pyrrolidin-2-one hydrochloride] | 0.01 to 0.1 µM
COc1cc(NC2CCN(c3ccc(-c4cn[nH]c4)c(OC)c3)C2=O)cc(OC)c1 (single isomer, unassigned) [Example 139, 3-((3,5-dimethoxyphenyl)amino)-1-(3-methoxy-4-(1H-pyrazol-4-yl)phenyl) pyrrolidin-2-one] | 0.1 to 2.2 µM
COc1nc(N2CCC(Nc3cc(C)n(C)n3)C2=O)ccc1-c1cn[nH]c1 (racemic) [Example 271, 3-((1,5-dimethyl-1H-pyrazol-3-yl)amino)-1-(6-methoxy-5-(1H-pyrazol-4-yl)pyridin-2-yl)pyrrolidin-2-one] | 0.1 to 2.2 µM
COc1cc(F)cc(NC2CCN(c3ccc(-c4cn[nH]c4)nc3)C2=O)c1 (single isomer, unassigned) [Example 302, 1-(6-(1H-pyrazol-4-yl)pyridin-3-yl)-3-((3-fluoro-5-methoxyphenyl)amino)pyrrolidin-2-one] | < 0.01 µM
COc1nc(N2CCC(Nc3ccc(F)c(OCC4CC4)c3)C2=O)ccc1-c1cn[nH]c1 (single isomer, unassigned) [Example 216, 3-((3-(cyclopropylmethoxy)-4-fluorophenyl)amino)-1-(6-methoxy-5-(1H-pyrazol-4-yl)pyridin-2-yl)pyrrolidin-2-one] | < 0.01 µM
COc1cccc(OC2CCN(c3ccc(-c4cn[nH]c4)c(OC)n3)C2=O)c1 (single isomer, unassigned) [Example 171, 1-(6-methoxy-5-(1H-pyrazol-4-yl)pyridin 2-yl)-3-(3-methoxyphenoxy)pyrrolidin-2-one] | < 0.01 µM
COc1cc(NC2CCN(c3ccc(-c4cn[nH]c4)c(C(F)F)c3)C2=O)ccc1F (single isomer, unassigned) [Example 179, 1-(3-(difluoromethyl)-4-(1H-pyrazol-4-yl)phenyl)-3-((4-fluoro-3-methoxyphenyl)amino)pyrrolidin-2-one] | 0.01 to 0.1 µM
COc1cccc(NC2CCN(c3ccc(-c4ccnc5[nH]ccc45)cc3)C2=O)c1 (single isomer, unassigned) [Example 80, 1-(4-(1H-pyrrolo[2,3-b]pyridin-4-yl)phenyl)-3-((3-methoxyphenyl)amino) pyrrolidin-2-one] | 0.1 to 2.2 µM
COc1cc(N2CCC(Nc3cccc(F)c3OC)C2=O)ccc1-c1cn[nH]c1 (single isomer, unassigned) [Example 151, 3-((3-fluoro-2-methoxyphenyl)amino)-1-(3-methoxy-4-(1H-pyrazol-4-yl)phenyl) pyrrolidin-2-one] | < 0.01 µM
Cc1cccc(NC2CCN(c3ccc(-c4cn[nH]c4)cc3)C2=O)c1 (stereo not shown) [Example 2, 1-(4-(1H-pyrazol-4-yl)phenyl)-3-(m-tolylamino)pyrrolidin-2-one] | 0.01 to 0.1 µM
COc1nc(N2CCC(Nc3cccc(OCC4CC4)c3)C2=O)ccc1-c1cn[nH]c1 (racemic) [Example 205, 3-((3-(cyclopropylmethoxy)phenyl)amino)-1-(6-methoxy-5-(1H-pyrazol-4-yl)pyridin-2-yl)pyrrolidin-2-one] | < 0.01 µM
O=C1C(c2cccc(F)c2)CCN1c1ccc(-c2cn[nH]c2)cc1 (stereo not shown) [Example 102, 1-(4-(1H-pyrazol-4-yl)phenyl)-3-(3-fluorophenyl)pyrrolidin-2-one] | 0.1 to 2.2 µM
COc1cccc(NC2CCN(c3ccc(-c4ccnc5[nH]ccc45)cc3)C2=O)c1 (single isomer, unassigned) [Example 81, 1-(4-(1H-pyrrolo[2,3-b]pyridin-4-yl)phenyl)-3-((3-methoxyphenyl)amino)pyrrolidin-2-one] | 0.01 to 0.1 µM
COc1cccc(NC2CCN(c3cc(F)c(-c4cn[nH]c4)c(F)c3)C2=O)c1 (single isomer, unassigned) [Example 311, 1-(3,5-difluoro-4-(1H-pyrazol-4-yl)phenyl)-3-((3-methoxyphenyl)amino)pyrrolidin-2-one] | < 0.01 µM
O=C1C(Oc2ccccc2Cl)CCN1c1ccc(-c2cn[nH]c2)cc1 (stereo not shown) [Example 110, 1-(4-(1H-pyrazol-4-yl)phenyl)-3-(2-chlorophenoxy)pyrrolidin-2-one] | 0.01 to 0.1 µM
COc1cc(N2CCC(Nc3cc(F)cc(F)c3)C2=O)ccc1-c1cn[nH]c1 (single isomer, unassigned) [Example 145, 3-((3,5-difluorophenyl)amino)-1-(3-methoxy-4-(1H-pyrazol-4-yl)phenyl) pyrrolidin-2-one] | 0.01 to 0.1 µM
O=C1C(Nc2cccc(OCC(F)F)c2)CCN1c1ccc(-c2cn[nH]c2)cc1 (single isomer, unassigned) [Example 237, 1-(4-(1H-pyrazol-4-yl)phenyl)-3-((3-(2,2-difluoroethoxy)phenyl)amino)pyrrolidin-2-one] | < 0.01 µM
COc1cc(NC2CCN(c3ccc(-c4cn[nH]c4)cc3)C2=O)ccc1F (single isomer, unassigned) [Example 18, 1-(4-(1H-pyrazol-4-yl)phenyl)-3-((4-fluoro-3-methoxyphenyl)amino)pyrrolidin-2-one] | < 0.01 µM

Structure (SMILES) | IC50
CC(C)Oc1cccc(NC2CCN(c3ccc(-c4cn[nH]c4)cc3)C2=O)c1 (stereo not shown) [Example 10, 1-(4-(1H-pyrazol-4-yl)phenyl)-3-((3-isopropoxyphenyl)amino)pyrrolidin-2-one] | 0.01 to 0.1 µM
Nc1cccc(OC2CCN(c3ccc(-c4cn[nH]c4)cc3)C2=O)c1 (stereo not shown) [Example 113, 1-(4-(1H-pyrazol-4-yl)phenyl)-3-(3-aminophenoxy)pyrrolidin-2-one, TFA] | 0.01 to 0.1 µM
COc1cccc(NC2CCN(c3ccc(-c4cn[nH]c4)c(Cl)c3)C2=O)c1 (single isomer, unassigned) [Example 165, 1-(3-chloro-4-(1H-pyrazo1-4-yl)phenyl)-3 ((3-methoxyphenyl)amino)pyrrolidin-2-one] | 0.01 to 0.1 µM
O=C1C(Cc2ccccc2F)CCN1c1ccc(-c2cn[nH]c2)cc1 (stereo not shown) [Example 96, 1-(4-(1H-pyrazol-4-yl)phenyl)-3-(2-fluorobenzyl)pyrrolidin-2-one] | 0.01 to 0.1 µM
COc1cccc([C@@H](C)NC2CCN(c3ccc(-c4cn[nH]c4)cc3)C2=O)c1 (stereo partly drawn) [Example 60, 1-(4-(1H-pyrazol-4-yl)phenyl)-3-(((R)-1-(3-methoxyphenyl)ethyl)amino)pyrrolidin-2-one, TFA] | 0.1 to 2.2 µM
O=C1C(Nc2cccc(OC(F)F)c2)CCN1c1ccc(-c2cn[nH]c2)cc1 (single isomer, unassigned) [Example 232, 1-(4-(1H-pyrazol-4-yl)phenyl)-3-((3-(difluoromethoxy)phenyl)amino) pyrrolidin-2-one] | < 0.01 µM
COc1nc(N2CCC(Nc3ccc4c(c3)OCO4)C2=O)ccc1-c1cn[nH]c1 (racemic) [Example 255, 3-(benzo[d][1,3]dioxol-5-ylamino)-1-(6-methoxy-5-(1H-pyrazol-4-yl)pyridin-2-yl)pyrrolidin-2-one] | < 0.01 µM
COc1cccc(NC2CCN(c3ccc(-c4ccnc5[nH]ccc45)c(C)n3)C2=O)c1 (single isomer, unassigned) [Example 119, 3-((3-methoxyphenyl)amino)-1-(6-methyl-5-(1H-pyrrolo[2,3-b]pyridin-4-yl)pyridin-2-yl)pyrrolidin-2-one] | 0.1 to 2.2 µM
COc1cc(F)cc(NC2CCN(c3ccc(-c4cn[nH]c4)cn3)C2=O)c1 (single isomer, unassigned) [Example 88, 1-(5-(1H-pyrazol-4-yl)pyridin-2-yl)-3-((3-fluoro-5-methoxyphenyl)amino)pyrrolidin-2-one] | < 0.01 µM
O=C1C(NCCc2ccccc2)CCN1c1ccc(-c2cn[nH]c2)cc1 (stereo not shown) [Example 59, 1-(4-(1H-pyrazol-4-yl)phenyl)-3-(phenethylamino)pyrrolidin-2-one, 2 TFA] | 0.1 to 2.2 µM
COc1nc(N2CCC(N3CCOc4ccccc43)C2=O)ccc1-c1cn[nH]c1 (single isomer, unassigned) [Example 230, 3-(2H-benzo[b][1,4]oxazin-4(3H)-yl)-1-(6-methoxy-5-(1H-pyrazol-4-yl)pyridin-2-yl)pyrrolidin-2-one] | < 0.01 µM
CNc1nc(N2CCC(Nc3cccc(OC)c3)C2=O)ccc1-c1cn[nH]c1 (single isomer, unassigned) [Example 253, 3-((3-methoxyphenyl)amino)-1-(6-(methylamino)-5-(1H-pyrazol-4-yl)pyridin-2-yl)pyrrolidin-2-one] | 0.01 to 0.1 µM
COc1nc(N2CCC(N3CCC(OC)CC3)C2=O)ccc1-c1cn[nH]c1 (racemic) [Example 291, 1-(6-methoxy-5-(1H-pyrazol-4-yl)pyridin-2-yl)-3-(4-methoxypiperidin-1-yl)pyrrolidin-2-one hydrochloride] | 0.1 to 2.2 µM
COc1cc(F)cc(NC2CCN(c3ccc(-c4cn[nH]c4)c(Cl)c3)C2=O)c1 (single isomer, unassigned) [Example 158, 1-(3-chloro-4-(1H-pyrazol-4-yl)phenyl)-3 ((3-fluoro-5-methoxyphenyl)amino) pyrrolidin-2-one] | 0.1 to 2.2 µM
CN(C)c1cccc(N[C@@H]2CCN(c3ccc(-c4cn[nH]c4)cc3)C2=O)c1 [Example 390, (R)-1-(4-(1H-pyrazol-4-yl)phenyl)-3-((3-(dimethylamino)phenyl)amino)pyrrolidin-2-one] | 0.1 to 2.2 µM
O=C1C(Nc2cccc(F)c2F)CCN1c1ccc(-c2cn[nH]c2)cc1 (single isomer, unassigned) [Example 23, 1-(4-(1H-pyrazol-4-yl)phenyl)-3-((2,3-difluorophenyl)amino)pyrrolidin-2-one] | < 0.01 µM
COc1cc(F)cc(NC2CCN(c3ccc(-c4cn[nH]c4)c(F)c3)C2=O)c1 (single isomer, unassigned) [Example 49, 1-(3-fluoro-4-(1H-pyrazol-4-yl)phenyl)-3-((3-fluoro-5-methoxyphenyl)amino)pyrrolidin-2-one] | < 0.01 µM
COc1cccc(NC2CCN(c3ccc(-c4ccnc(F)c4)c(OC)n3)C2=O)c1 (racemic) [Example 127, 1-(2′-fluoro-2-methoxy-[3,4′-bipyridin]-6-yl)-3-((3-methoxyphenyl)amino)pyrrolidin-2-one] | 0.01 to 0.1 µM
